Data published in ChEMBL document CHEMBL3045946, “Synthesis and biological activity studies of new hybrid molecules containing tryptamine moiety” (2012).
Active and inactive are the calls of the source. No cut-off for these calls is given here.

Tests used:
[1] = test system: Pseudomonas aeruginosa; assay: Antibacterial activity against Pseudomonas aeruginosa ATCC 43288 after 18 hr by agar well diffusion method; assay type: functional
[2] = test system: Saccharomyces cerevisiae; assay: Antifungal activity against Saccharomyces cerevisiae RSKK 251 after 18 hr by agar well diffusion method; assay type: functional, organism-based
[3] = test system: Enterococcus faecalis; assay: Antibacterial activity against Enterococcus faecalis ATCC 29212 after 18 hr by agar well diffusion method; assay type: functional
[4] = test system: Candida albicans; assay: Antifungal activity against Candida albicans ATCC 60193 after 18 hr by agar well diffusion method; assay type: functional, organism-based
[5] = test system: Candida tropicalis; assay: Antifungal activity against Candida tropicalis after 18 hr by agar well diffusion method; assay type: functional, organism-based
[6] = test system: Staphylococcus aureus; assay: Antibacterial activity against Staphylococcus aureus ATCC 25923 after 18 hr by agar well diffusion method; assay type: functional
[7] = test system: Mycolicibacterium smegmatis; assay: Antibacterial activity against Mycobacterium smegmatis ATCC 607 after 18 hr by agar well diffusion method; assay type: functional
[8] = test system: Bacillus cereus; assay: Antibacterial activity against Bacillus cereus 702 Roma after 18 hr by agar well diffusion method; assay type: functional
[9] = test system: Bacillus cereus; assay: Antibacterial activity against Bacillus cereus 702 Roma at 10 mg after 18 hr by agar well diffusion method; assay type: functional; conditions: read-out: IZ
[10] = test system: Staphylococcus aureus; assay: Antibacterial activity against Staphylococcus aureus ATCC 25923 at 10 mg after 18 hr by agar well diffusion method; assay type: functional; conditions: ATCC 25923, 18 h, read-out: IZ
[11] = test system: Pseudomonas aeruginosa; assay: Antibacterial activity against Pseudomonas aeruginosa ATCC 43288 at 10 mg after 18 hr by agar well diffusion method; assay type: functional; conditions: ATCC 43288, 18 h, read-out: IZ
[12] = test system: Enterococcus faecalis; assay: Antibacterial activity against Enterococcus faecalis ATCC 29212 at 10 mg after 18 hr by agar well diffusion method; assay type: functional; conditions: ATCC 29212, 18 h, read-out: IZ

O=c1n(Cc2nnc(S)o2)nc(Cc2ccc(Cl)cc2)n1CCc1c[nH]c2ccccc12
Activity [1]: inactive
Activity [2]: inactive
inhibition zone (IZ) [3]: 10 mm
Activity [4]: inactive
Activity [5]: inactive
inhibition zone (IZ) [6]: 8 mm
Activity [7]: inactive
inhibition zone (IZ) [8]: 6 mm

CC1(C)S[C@@H]2[C@H](NC(=O)[C@H](N)c3ccccc3)C(=O)N2[C@H]1C(=O)O [AMPICILLIN]
zone of inhibition at 10000 µg/disc [9]: 15 mm
zone of inhibition at 10000 µg/disc [10]: 35 mm
zone of inhibition at 10000 µg/disc [11]: 18 mm
zone of inhibition at 10000 µg/disc [12]: 10 mm

O=c1[nH]nc(Cn2nc(Cc3ccc(Cl)cc3)n(CCc3c[nH]c4ccccc34)c2=O)n1Cc1ccccc1
inhibition zone (IZ) [1]: 10 mm
Activity [2]: inactive
Activity [3]: inactive
Activity [4]: inactive
Activity [5]: inactive
Activity [6]: inactive
inhibition zone (IZ) [7]: 10 mm
inhibition zone (IZ) [8]: 12 mm

O=C(Cn1nc(Cc2ccc(Cl)cc2)n(CCc2c[nH]c3ccccc23)c1=O)NNS(=O)(=O)c1ccc(Cl)cc1
inhibition zone (IZ) [1]: 12 mm
Activity [2]: inactive
Activity [4]: inactive
Activity [5]: inactive
inhibition zone (IZ) [6]: 11 mm
inhibition zone (IZ) [7]: 14 mm
inhibition zone (IZ) [8]: 12 mm

O=C(Cn1nc(Cc2ccc(Cl)cc2)n(CCc2c[nH]c3ccccc23)c1=O)N/N=C/Cc1ccccc1
Activity [1]: inactive
Activity [2]: inactive
Activity [3]: inactive
Activity [4]: inactive
Activity [5]: inactive
Activity [6]: inactive
Activity [7]: inactive
Activity [8]: inactive

O=C(Cn1nc(Cc2ccc(Cl)cc2)n(CCc2c[nH]c3ccccc23)c1=O)NNS(=O)(=O)c1ccc(Br)cc1
inhibition zone (IZ) [1]: 12 mm
Activity [2]: inactive
Activity [3]: inactive
Activity [4]: inactive
Activity [5]: inactive
inhibition zone (IZ) [6]: 8 mm
inhibition zone (IZ) [7]: 9 mm
inhibition zone (IZ) [8]: 12 mm

Cc1ccc(Cc2nn(Cc3nnc(S)o3)c(=O)n2CCc2c[nH]c3ccccc23)cc1
Activity [1]: inactive
Activity [2]: inactive
inhibition zone (IZ) [3]: 12 mm
Activity [4]: inactive
Activity [5]: inactive
inhibition zone (IZ) [6]: 12 mm
inhibition zone (IZ) [7]: 8 mm
inhibition zone (IZ) [8]: 8 mm

Cc1ccc(Cc2nn(CC(=O)N/N=C/c3ccc[nH]3)c(=O)n2CCc2c[nH]c3ccccc23)cc1
Activity [1]: inactive
Activity [2]: inactive
Activity [3]: inactive
Activity [4]: inactive
Activity [5]: inactive
Activity [6]: inactive
Activity [7]: inactive
Activity [8]: inactive

Cc1ccc(Cc2nn(CC(=O)NNC(=S)Nc3ccccc3)c(=O)n2CCc2c[nH]c3ccccc23)cc1
Activity [1]: inactive
Activity [2]: inactive
Activity [3]: inactive
Activity [4]: inactive
Activity [5]: inactive
Activity [6]: inactive
Activity [7]: inactive
Activity [8]: inactive

O=C(Cn1nc(Cc2ccc(Cl)cc2)n(CCc2c[nH]c3ccccc23)c1=O)N/N=c1\occ(-c2ccc(Cl)cc2)n1Cc1ccccc1
Activity [1]: inactive
Activity [2]: inactive
Activity [3]: inactive
Activity [4]: inactive
Activity [5]: inactive
inhibition zone (IZ) [6]: 5 mm
Activity [7]: inactive
inhibition zone (IZ) [8]: 6 mm

COc1ccc(/C=N/NC(=O)Cn2nc(Cc3ccc(C)cc3)n(CCc3c[nH]c4ccccc34)c2=O)cc1
Activity [1]: inactive
Activity [2]: inactive
Activity [3]: inactive
Activity [4]: inactive
Activity [5]: inactive
Activity [6]: inactive
Activity [7]: inactive
Activity [8]: inactive

O=C(Cn1nc(Cc2ccc(Cl)cc2)n(CCc2c[nH]c3ccccc23)c1=O)NNC(=O)NCc1ccccc1
Activity [1]: inactive
Activity [2]: inactive
Activity [3]: inactive
Activity [4]: inactive
Activity [5]: inactive
Activity [6]: inactive
Activity [7]: inactive
Activity [8]: inactive

COc1ccc(/C=N/NC(=O)Cn2nc(Cc3ccc(Cl)cc3)n(CCc3c[nH]c4ccccc34)c2=O)cc1
Activity [1]: inactive
Activity [2]: inactive
Activity [3]: inactive
Activity [4]: inactive
Activity [5]: inactive
Activity [6]: inactive
Activity [7]: inactive
Activity [8]: inactive

CN[C@@H]1[C@H](O[C@H]2[C@H](O[C@H]3[C@H](O)[C@@H](O)[C@H](N=C(N)N)[C@@H](O)[C@@H]3N=C(N)N)O[C@@H](C)[C@]2(O)C=O)O[C@@H](CO)[C@H](O)[C@H]1O [STREPTOMYCIN]
inhibition zone (IZ) [7]: 35 mm

Cc1ccc(Cc2nn(CC(=O)N/N=C/c3ccccn3)c(=O)n2CCc2c[nH]c3ccccc23)cc1
Activity [1]: inactive
Activity [2]: inactive
Activity [3]: inactive
Activity [4]: inactive
Activity [5]: inactive
Activity [6]: inactive
Activity [7]: inactive
Activity [8]: inactive

Cc1ccc(Cc2nn(CC(=O)NNS(=O)(=O)c3ccc(Cl)cc3)c(=O)n2CCc2c[nH]c3ccccc23)cc1
inhibition zone (IZ) [1]: 10 mm
Activity [2]: inactive
Activity [3]: inactive
Activity [4]: inactive
Activity [5]: inactive
inhibition zone (IZ) [6]: 7 mm
inhibition zone (IZ) [7]: 9 mm
inhibition zone (IZ) [8]: 10 mm

Cc1ccc(Cc2nn(CC(=O)NNS(=O)(=O)c3ccc(Br)cc3)c(=O)n2CCc2c[nH]c3ccccc23)cc1
inhibition zone (IZ) [1]: 10 mm
Activity [2]: inactive
Activity [3]: inactive
Activity [4]: inactive
Activity [5]: inactive
Activity [6]: inactive
inhibition zone (IZ) [7]: 7 mm
inhibition zone (IZ) [8]: 8 mm

Cc1ccc(Cc2nn(Cc3nnc(S)n3N)c(=O)n2CCc2c[nH]c3ccccc23)cc1
Activity [1]: inactive
Activity [2]: inactive
Activity [3]: inactive
Activity [4]: inactive
Activity [5]: inactive
Activity [6]: inactive
inhibition zone (IZ) [7]: 6 mm
inhibition zone (IZ) [8]: 7 mm

Cc1ccc(Cc2nn(CC(=O)N/N=c3\scc(-c4ccc(Cl)cc4)n3-c3ccccc3)c(=O)n2CCc2c[nH]c3ccccc23)cc1
Activity [1]: inactive
Activity [2]: inactive
Activity [3]: inactive
Activity [4]: inactive
Activity [5]: inactive
Activity [6]: inactive
Activity [7]: inactive
Activity [8]: inactive

Nn1c(S)nnc1Cn1nc(Cc2ccc(Cl)cc2)n(CCc2c[nH]c3ccccc23)c1=O
Activity [1]: inactive
Activity [2]: inactive
Activity [3]: inactive
Activity [4]: inactive
Activity [5]: inactive
Activity [6]: inactive
inhibition zone (IZ) [7]: 7 mm
inhibition zone (IZ) [8]: 7 mm

O=C(Cn1nc(Cc2ccc(Cl)cc2)n(CCc2c[nH]c3ccccc23)c1=O)N/N=C/c1ccc[nH]1
Activity [1]: inactive
Activity [2]: inactive
Activity [3]: inactive
Activity [4]: inactive
Activity [5]: inactive
Activity [6]: inactive
inhibition zone (IZ) [7]: 6 mm
Activity [8]: inactive

Cc1ccc(Cc2nn(Cc3n[nH]c(=O)n3Cc3ccccc3)c(=O)n2CCc2c[nH]c3ccccc23)cc1
inhibition zone (IZ) [1]: 6 mm
Activity [2]: inactive
Activity [3]: inactive
Activity [4]: inactive
Activity [5]: inactive
Activity [6]: inactive
inhibition zone (IZ) [7]: 10 mm
inhibition zone (IZ) [8]: 7 mm

COc1ccc(/C=N/n2c(S)nnc2Cn2nc(Cc3ccc(C)cc3)n(CCc3c[nH]c4ccccc34)c2=O)cc1
inhibition zone (IZ) [1]: 12 mm
Activity [2]: inactive
Activity [3]: inactive
Activity [4]: inactive
Activity [5]: inactive
inhibition zone (IZ) [6]: 11 mm
inhibition zone (IZ) [7]: 6 mm
inhibition zone (IZ) [8]: 12 mm
